Source: US11613546B2, “Substituted pyridotriazine compounds and uses thereof” (Gilead Sciences, Inc., priority 2021, dated 2023)
Read-outs that look alike come from different tables or passages of the source.

Columns and labels:
Assay type in all cases: cell-based
pLai RLuc reporter virus = experiment: HIV MT-4 serum shift antiviral reporter assay; details: Human immunodeficiency virus 1, 72 h
Method: To quantify the amount of protein binding to human serum, compounds were serially diluted (1:3) in DMSO and acoustically transferred onto 384-well assay plates via a Labcyte ECHO robot. Each plate contained up to 8 test compounds, including negative and positive controls, (DMSO, 5 μM AZT respectively). Assay plates were prepared in duplicate, and tested in either CCM (cell culture media) or HS/CCM (human serum/cell culture media). MT-4 cells were first pre-infected with pLai RLuc reporter virus for 2 h at 37° C., then further diluted in either CCM (RPMI media, 10% FBS, 1% P/S) or HS/CCM (RPMI media, 10% FBS, 50% HS, 1% P/S), and subsequently added to each plate using a Biotek Micro Flow dispenser. After a 72-h incubation in a humidified and temperature controlled incubator (37° C.), Renilla Glo (Promega) was added to all assay plates and chemiluminescence read using an Envision plate-reader. EC50 values were defined as the compound concentration that causes a 50% decrease in luminescence signal, and were calculated using a sigmoidal dose-response model to generate curve fits. To determine the amount of protein binding, EC50 fold shifts (or EC50 shifts) were calculated by dividing EC50 (HS/CCM)/EC50 (CCM).

[1] = Cytotoxicity assay in MT-4 cells; details: human
Method: (§1) Compounds were tested in a high-throughput 384-well assay format for their ability to inhibit the replication of HIV-1 (IIIB) in MT-4 cells. Compounds were serially diluted (1:3) in DMSO on 384-well polypropylene plates and further diluted 200-fold into complete RPMI media (10% FBS, 1% P/S) using the Biotek Micro Flow and Labcyte ECHO acoustic dispenser. Each plate contained up to 8 test compounds, with negative (No Drug Control) and 5 μM AZT positive controls. MT-4 cells were pre-infected with 10 μL of either RPMI (mock-infected) or a fresh 1:250 dilution of HIV-1 IIIB concentrated virus stock. Infected and uninfected MT-4 cells were further diluted in complete RPMI media and added to each plate using a Micro Flow dispenser. After 5 days incubation in a humidified and temperature controlled incubator (37° C.), Cell Titer Glo (Promega) was added to the assay plates and chemiluminescence read using an Envision plate-reader. EC50 values were defined as the compound concentration that causes a 50% decrease in luminescence signal, and were calculated using a sigmoidal dose-response model to generate curve fits. Cytotoxicity Assay in MT-4 Cells Assays were performed as above except uninfected MT-4 cells were added to each well containing test compound. In addition, 10 μM puromycin was added to the last column of each assay plate to assess a base level of cytotoxicity.

HIV-1 (IIIB) = experiment: Antiviral assay in MT-4 cells; details: Human immunodeficiency virus 1, IIIB, MT4, 120 h
Method: Antiviral Assay in MT-4 Cells
as §1, with “fits.” for “fits. Cytotoxicity Assay in MT-4 Cells Assays were performed as above except uninfected MT-4 cells were added to each well containing test compound. In addition, 10 μM puromycin was added to the last column of each assay plate to assess a base level of cytotoxicity.”

[2] = read-out: RLUC 50% HS (nM), HS/CCM: 50% human serum, 72 h, Renilla Glo
[3] = read-out: RLUC CCM (nM), cell culture media (RPMI, 10% FBS), 72 h, Renilla Glo
[4] = uninfected MT-4 cells, 5 days, Cell Titer Glo, read-out: CC50
[5] = HIV-1 IIIB infected MT-4 cells, 5 days, Cell Titer Glo, read-out: MT4 EC50

SMILES | EC50 (pLai RLuc reporter virus; [2]) [nM] | EC50 (pLai RLuc reporter virus; [3]) [nM] | CC50 at 5 days [1, 4] [nM] | EC50 (HIV-1 (IIIB); [5]) [nM] | CC50 at 5 days ([1]; CC50 (nM)) [nM] | EC50 (HIV-1 (IIIB); read-out: MT4 EC50 (nM)) [nM]
C[C@@H]1CC[C@@H](C)N2CN1C(=O)c1c(O)c(=O)c(C(=O)NCc3c(F)cc(F)cc3F)cn12 [Example C65, (1S,2R,5R)-8-hydroxy-2,5-dimethyl-7,9-dioxo-N-(2,4,6-trifluorobenzyl)-2,3,4,5,7,9-hexahydro-1,6-methanopyrido[1,2-b][1,2,5]triazonine-10-carboxamide] | 63.8 | 0.44 | 15400 | 1.8 |  | 
C[C@@H]1C[C@@H](CF)[C@H](C)N2CN1n1cc(C(=O)NCc3c(F)cc(F)cc3F)c(=O)c(O)c1C2=O [Example C57, (1S,2R,4R,5S)-4-(fluoromethyl)-8-hydroxy-2,5-dimethyl-7,9-dioxo-N-(2,4,6-trifluorobenzyl)-2,3,4,5,7,9-hexahydro-1,6-methanopyrido[1,2-b][1,2,5]triazonine-10-carboxamide] | 11.6 | 0.27 | 8930 | 1.2 |  | 
C[C@@H]1CC(F)(F)[C@H](C)N2CN1n1cc(C(=O)NCc3ccc(F)cc3F)c(=O)c(O)c1C2=O [Example C54, (1S,2R,5S)—N-(2,4-difluorobenzyl)-4,4-difluoro-8-hydroxy-2,5-dimethyl-7,9-dioxo-2,3,4,5,7,9-hexahydro-1,6-methanopyrido[1,2-b][1,2,5]triazonine-10-carboxamide] | 72.4 | 0.63 | 47400 | 2.3 |  | 
C[C@@H]1C=C(F)[C@H](C)N2CN1n1cc(C(=O)NCc3c(F)cc(F)cc3F)c(=O)c(O)c1C2=O [Example C55, (1S,2R,5S)-4-fluoro-8-hydroxy-2,5-dimethyl-7,9-dioxo-N-(2,4,6-trifluorobenzyl)-2,5,7,9-tetrahydro-1,6-methanopyrido[1,2-b][1,2,5]triazonine-10-carboxamide] | 515 | 0.71 | 29500 | 1.3 |  | 
C[C@H]1CC[C@@H](CF)N2CN1C(=O)c1c(O)c(=O)c(C(=O)NCc3c(F)cc(F)cc3F)cn12 [Example C77, (1S,2S,5S)-2-(fluoromethyl)-8-hydroxy-5-methyl-7,9-dioxo-N-(2,4,6-trifluorobenzyl)-2,3,4,5,7,9-hexahydro-1,6-methanopyrido[1,2-b][1,2,5]triazonine-10-carboxamide] | 296 | 1.14 | 15700 | 2 |  | 
C[C@@H]1CCCCN2CN1n1cc(C(=O)NCc3ccc(F)cc3F)c(=O)c(O)c1C2=O [Example C13, (1S,2R)—N-(2,4-difluorobenzyl)-9-hydroxy-2-methyl-8,10-dioxo-3,4,5,6,8,10-hexahydro-2H-1,7-methanopyrido[1,2-b][1,2,5]triazecine-11-carboxamide] | 4.07 | 0.25 | 8870 | 1.3 |  | 
CO[C@@H]1CC[C@H](C)N2CN1n1cc(C(=O)NCc3c(F)cc(F)cc3F)c(=O)c(O)c1C2=O [Example C47, (1R,2R,5S)-8-hydroxy-2-methoxy-5-methyl-7,9-dioxo-N-(2,4,6-trifluorobenzyl)-2,3,4,5,7,9-hexahydro-1,6-methanopyrido[1,2-b][1,2,5]triazonine-10-carboxamide] | 196 | 1.71 | 11500 | 1.8 |  | 
C[C@@H]1CC[C@@H](C)N2CN1C(=O)c1c(O)c(=O)c(C(=O)NCc3ccc(F)cc3F)cn12 [Example C67, (1S,2R,5R)—N-(2,4-difluorobenzyl)-8-hydroxy-2,5-dimethyl-7,9-dioxo-2,3,4,5,7,9-hexahydro-1,6-methanopyrido[1,2-b][1,2,5]triazonine-10-carboxamide] | 35.3 | 0.51 | 25500 | 1.9 |  | 
C[C@@H]1CC[C@H](CF)N2CN1n1cc(C(=O)NCc3ccc(F)cc3F)c(=O)c(O)c1C2=O [Example C98, (1S,2R,5R)—N-(2,4-difluorobenzyl)-5-(fluoromethyl)-8-hydroxy-2-methyl-7,9-dioxo-2,3,4,5,7,9-hexahydro-1,6-methanopyrido[1,2-b][1,2,5]triazonine-10-carboxamide] | 462 | 1.03 | 8930 | 2 |  | 
C[C@H]1CC[C@@H](C(F)F)N2CN1C(=O)c1c(O)c(=O)c(C(=O)NCc3ccc(F)cc3F)cn12 [Example C81, (1S,2S,5S)—N-(2,4-difluorobenzyl)-2-(difluoromethyl)-8-hydroxy-5-methyl-7,9-dioxo-2,3,4,5,7,9-hexahydro-1,6-methanopyrido[1,2-b][1,2,5]triazonine-10-carboxamide] | 723 | 0.48 | 13700 | 1.5 |  | 
C[C@H]1C=CC2(CCC2)N2CN1C(=O)c1c(O)c(=O)c(C(=O)NCc3c(F)cc(F)cc3F)cn12 [Example C104, (1′S,5′S)-8′-hydroxy-5′-methyl-7′,9′-dioxo-N-(2,4,6-trifluorobenzyl)-7′,9′-dihydro-5′H-spiro[cyclobutane-1,2′-[1,6]methanopyrido[1,2-b][1,2,5]triazonine]-10′-carboxamide] | 140 | 0.44 |  | 1.4 | 19700 | 
C[C@@H]1C[C@H](F)[C@H](C)N2CN1n1cc(C(=O)NCc3ccc(F)cc3F)c(=O)c(O)c1C2=O [Example C52, (1S,2R,4S,5S)—N-(2,4-difluorobenzyl)-4-fluoro-8-hydroxy-2,5-dimethyl-7,9-dioxo-2,3,4,5,7,9-hexahydro-1,6-methanopyrido[1,2-b][1,2,5]triazonine-10-carboxamide] | 473 | 0.77 | 9220 | 1.5 |  | 
C[C@@H]1C[C@@H](C(F)F)[C@H](C)N2CN1n1cc(C(=O)NCc3c(F)cc(F)cc3F)c(=O)c(O)c1C2=O [Example C56, (1S,2R,4R,5S)-4-(difluoromethyl)-8-hydroxy-2,5-dimethyl-7,9-dioxo-N-(2,4,6-trifluorobenzyl)-2,3,4,5,7,9-hexahydro-1,6-methanopyrido[1,2-b][1,2,5]triazonine-10-carboxamide] | 24.9 | 0.52 | 10100 |  |  | 1.1
C[C@@H]1C=C[C@H](CF)N2CN1n1cc(C(=O)NCc3c(F)cc(F)cc3F)c(=O)c(O)c1C2=O [Example C50, (1S,2R,5R)-5-(fluoromethyl)-8-hydroxy-2-methyl-7,9-dioxo-N-(2,4,6-trifluorobenzyl)-2,5,7,9-tetrahydro-1,6-methanopyrido[1,2-b][1,2,5]triazonine-10-carboxamide] | 850 | 0.37 | 13300 | 0.85 |  | 
C[C@H]1[C@@H](F)C[C@H](C)N2CN1C(=O)c1c(O)c(=O)c(C(=O)NCc3ccc(F)cc3F)cn12 [Example C58, (1S,2S,4S,5S)—N-(2,4-difluorobenzyl)-4-fluoro-8-hydroxy-2,5-dimethyl-7,9-dioxo-2,3,4,5,7,9-hexahydro-1,6-methanopyrido[1,2-b][1,2,5]triazonine-10-carboxamide] | 294 | 0.28 | 11300 | 1.5 |  | 
